Results on 25 compounds are retold here after patent US11312706B2, “Cyclohexyl acid pyrazole azines as LPA antagonists” (BRISTOL-MYERS SQUIBB COMPANY, priority 2017, dated 2022).

pIC50: −log10 of the molar value.

T1 sequence (Q92633 whole entry): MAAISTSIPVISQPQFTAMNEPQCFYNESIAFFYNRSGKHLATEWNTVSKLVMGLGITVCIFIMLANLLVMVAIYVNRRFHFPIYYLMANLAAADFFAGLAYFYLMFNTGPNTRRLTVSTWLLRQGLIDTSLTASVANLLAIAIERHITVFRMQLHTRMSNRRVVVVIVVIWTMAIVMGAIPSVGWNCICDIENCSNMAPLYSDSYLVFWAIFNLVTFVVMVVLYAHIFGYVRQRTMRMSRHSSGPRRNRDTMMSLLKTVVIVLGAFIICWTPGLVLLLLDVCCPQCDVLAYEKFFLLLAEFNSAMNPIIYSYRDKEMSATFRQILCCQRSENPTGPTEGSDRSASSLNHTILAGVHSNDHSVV

The first assay relates to IPF patients.
Test: not given
The settings on record: 26 weeks; cited from earlier work.
For `Cc1noc(-c2ccc(-c3ccc(C4(C(=O)O)CC4)cc3)cc2)c1NC(=O)O[C@H](C)c1ccccc1` [BMS-986020], the “rate of FVC (forced vital capacity) decline” value is reported as “significantly reduce the rate of FVC (forced vital capacity) decline”.

The next assay deals with nerve-injured mice.
Test: not given
To be noted: pretreatment; cited from earlier work.
For the compound `C[C@@H](N)[C@H]1CC[C@H](C(=O)Nc2ccncc2)CC1` [Example Y-27632], the allodynia and hyperalgesia entry is “completely abolished”.

The next assay addresses T1, human LPA1 (Homo sapiens, UniProt Q92633).
T1 construct: expressed in transfected cells; host or cells: Chinese hamster ovary (CHO) cells
In words: LPA1 functional antagonist assay (LPA-induced calcium flux). The class given is cell-based. The settings on record: CHO cells overexpressing human LPA1, 10 nM LPA, read-out: hLPA1 IC50. The procedure: The effectiveness of compounds of the present invention as LPA1 inhibitors can be determined in an LPA1 functional antagonist assay as follows:
Chinese hamster ovary cells overexpressing human LPA1 were plated overnight (15,000 cells/well) in poly-D-lysine coated 384-well microplates (Greiner bio-one, Cat #781946) in DMEM/F12 medium (Gibco, Cat #11039). Following overnight culture, cells were loaded with calcium indicator dye (AAT Bioquest Inc, Cat #34601) for 30 minutes at 37° C. The cells were then equilibrated to room temperature for 30 minutes before the assay. Test compounds solubilized in DMSO were transferred to 384 well non-binding surface plates (Corning, Cat #3575) using the Labcyte Echo acoustic dispense and diluted with assay buffer [1×HBSS with calcium/magnesium (Gibco Cat #14025-092), 20 mM HEPES (Gibco Cat #15630-080) and 0.1% fatty acid free BSA (Sigma Cat #A9205)] to a final concentration of 0.5% DMSO. Diluted compounds were added to the cells by FDSS6000 (Hamamatsu) at final concentrations ranging from 0.08 nM to 5 μM. and were then incubated for 20 min at room temperature at which time LPA (Avanti Polar Lipids Cat #857130C) was added at final concentrations of 10 nM to stimulate the cells. The compound IC50 value was defined as the concentration of test compound which inhibited 50% of the calcium flux induced by LPA alone. IC50 values were determined by fitting data to a 4-parameter logistic equation (GraphPad Prism, San Diego Calif.).
(Calcium assays in cells follow changes in intracellular calcium, usually with a dye or a luminescent sensor.)
In general, pIC50 refers to the IC50 on a negative log10 scale, so that one unit is a factor of ten. On to `Cc1nc(-c2cnn(C)c2CNc2nccc(-c3ccccn3)n2)ncc1O[C@H]1CCC[C@H](C(=O)O)C1` [Example 17, (1S,3S)-3-((4-methyl-2-(1-methyl-5-(((4-(pyridin-2-yl)pyrimidin-2-yl)amino)methyl)-1H-pyrazol-4-yl)pyrimidin-5-yl)oxy)cyclohexane-1-carboxylic acid], for which the pIC50 was 7.10.

Consider `CCOc1ccnc(NCc2c(-c3ncc(O[C@H]4CCC[C@H](C(=O)O)C4)c(C)n3)cnn2C)n1` [Example 3, (1S,3S)-3-((2-(5-(((4-ethoxypyrimidin-2-yl)amino)methyl)-1-methyl-1H-pyrazol-4-yl)-4-methyl-pyrimidin-5-yl)oxy)cyclohexane-1-carboxylic acid], for which the pIC50 was 7.66.

On to `Cc1cc(-c2ccccn2)nc(NCc2c(-c3ccc(O[C@H]4CCC[C@H](C(=O)O)C4)c(C)n3)cnn2C)n1` [Example 5, (1S,3S)-3-((2-methyl-6-(1-methyl-5-(((4-methyl-6-(pyridin-2-yl)pyrimidin-2-yl)amino)methyl)-1H-pyrazol-4-yl)pyridin-3-yl)oxy)cyclohexanecarboxylic acid], for which the negative-log IC50 (pIC50) is 6.66.

With `Cn1ncc(-c2ccc(O[C@H]3CCC[C@H](C(=O)O)C3)cn2)c1CNc1nccc(-c2ccccc2)n1` (relative stereo) [Example 1, Trans-3-((6-(1-methyl-5-(((4-phenylpyrimidin-2-yl)amino)methyl)-1H-pyrazol-4-yl)pyridin-3-yl)oxy)cyclohexane-1-carboxylic acid], the pIC50 was 6.91.

On to `Cc1nc(-c2cnn(C)c2CNc2nccc(OC3CC3)n2)ncc1O[C@H]1CCC[C@H](C(=O)O)C1` [Example 7, (1S,3S)-3-((2-(5-(((4-cyclopropoxy-pyrimidin-2-yl)amino)methyl)-1-methyl-1H-pyrazol-4-yl)-4-methylpyrimidin-5-yl)oxy)cyclohexane-1-carboxylic acid], for which the pIC50 is 7.66.

On to `Cc1nc(-c2cnn(C)c2CNc2nccc(-c3ccccc3)n2)ccc1O[C@H]1CCC[C@H](C(=O)O)C1` [Example 4, (1S,3S)-3-((2-methyl-6-(1-methyl-5-(((4-phenylpyrimidin-2-yl)amino)methyl)-1H-pyrazol-4-yl)pyridin-3-yl)oxy)cyclohexanecarboxylic acid], for which the pIC50 was 7.27.

As for `Cc1nc(-c2cnn(C)c2CNc2nccc(OC3CC(F)(F)C3)n2)ncc1O[C@H]1CCC[C@H](C(=O)O)C1` [Example 31, (1S,3S)-3-((2-(5-(((4-(3,3-difluorocyclobutoxy)pyrimidin-2-yl)amino)methyl)-1-methyl-1H-pyrazol-4-yl)-4-methylpyrimidin-5-yl)oxy)cyclohexane-1-carboxylic acid], the pIC50 was 6.91.

Take `COCCOc1ccnc(NCc2c(-c3ncc(O[C@H]4CCC[C@H](C(=O)O)C4)c(C)n3)cnn2C)n1` [Example 34, (1S,3S)-3-((2-(5-(((4-(2-methoxyethoxy)pyrimidin-2-yl)amino)methyl)-1-methyl-lH-pyrazol-4-yl)-4-methylpyrimidin-5-yl)oxy)cyclohexane-1-carboxylic acid]: the pIC50 is 7.11.

Turning to `Cc1nc(-c2cnn(C)c2CNc2nccc(OCC(C)(F)F)n2)ncc1O[C@H]1CCC[C@H](C(=O)O)C1` [Example 8, (1S,3S)-3-((2-(5-(((4-(2,2-difluoro-propoxy)pyrimidin-2-yl)amino)methyl)-1-methyl-1H-pyrazol-4-yl)-4-methylpyrimidin-5-yl)oxy)cyclo-hexane-1-carboxylic acid], the negative-log IC50 (pIC50) is 7.48.

`COc1ccnc(NCc2c(-c3ncc(O[C@H]4CCC[C@H](C(=O)O)C4)c(C)n3)cnn2C)n1` [Example 6, (1S,3S)-3-((2-(5-(((4-methoxy-pyrimidin-2-yl)amino)methyl)-1-methyl-1H-pyrazol-4-yl)-4-methylpyrimidin-5-yl)oxy)cyclohexane-1-carboxylic acid]: the negative logarithm of the IC50 (pIC50) is 7.13.

Take `CCCc1ccnc(Nc2c(-c3ncc(O[C@H]4CCC[C@H](C(=O)O)C4)c(C)n3)cnn2C)n1` [Example 19, (1S,3S)-3-((4-methyl-2-(1-methyl-5-((4-propylpyrimidin-2-yl)amino)-1H-pyrazol-4-yl)pyrimidin-5-yl)oxy)cyclohexane-1-carboxylic acid]: the pIC50 is 5.85.

Consider `CCOc1ccnc(N(C)Cc2c(-c3ncc(O[C@H]4CCC[C@H](C(=O)O)C4)cn3)cnn2C)n1` [Example 29], for which the pIC50 is 6.82.

Regarding `CCOc1ccnc(NCc2c(-c3ncc(O[C@H]4CCC[C@H](C(=O)O)C4)c(CC)n3)cnn2C)n1` [Example 21, (1S,3S)-3-((2-(5-(((4-ethoxypyrimidin-2-yl)amino)methyl)-1-methyl-1H-pyrazol-4-yl)-4-ethylpyrimidin-5-yl)oxy)cyclohexane-1-carboxylicacid], the pIC50 was 8.30.

For `CCCNc1nc(NCc2c(-c3ncc(O[C@H]4CCC[C@H](C(=O)O)C4)c(C)n3)cnn2C)ncc1F` [Example 37, (1S,3S)-3-((2-(5-(((5-fluoro-4-(propylamino)pyrimidin-2-yl)amino)methyl)-1-methyl-1H-pyrazol-4-yl)-4-methylpyrimidin-5-yl)oxy)cyclohexane-1-carboxylic acid], the pIC50 is 7.89.

“(1S,3S)-3-((2-(5-(((4-(2-fluoro-phenyl)pyrimidin-2-yl)amino) methyl)-1-methyl-1H-1,2,3-triazol-4-yl)-4-methylpyrimidin-5-yl)oxy)cyclohexanecarboxylic acid [Example 14]”: the pIC50 was 7.66.

Regarding `CCc1nc(-c2cnn(C)c2CNc2nccc(OC)n2)ncc1O[C@H]1CCC[C@H](C(=O)O)C1` [Example 24, (1S,3S)-3-((4-ethyl-2-(5-(((4-methoxypyrimidin-2-yl)amino)methyl)-1-methyl-1H-pyrazol-4-yl)pyrimidin-5-yl)oxy)cyclohexane-1-carboxylic acid], the pIC50 is 6.46.

As to `Cc1nc(-c2cnn(C)c2CNc2nccc(OCCCF)n2)ncc1O[C@H]1CCC[C@H](C(=O)O)C1` [Example 41, (1S,3S)-3-((2-(5-(((4-(3-fluoropropoxy)pyrimidin-2-yl)amino)methyl)-1-methyl-1H-pyrazol-4-yl)-4-methylpyrimidin-5-yl)oxy)cyclohexane-1-carboxylic acid], the pIC50 is 8.15.

`Cc1nc(-c2cnn(C)c2CNc2nccc(OCC(C)F)n2)ncc1O[C@H]1CCC[C@H](C(=O)O)C1` (stereo partly drawn) [Example 33, (1S,3S)-3-((2-(5-(((4-(2-fluoropropoxy)pyrimidin-2-yl)amino)methyl)-1-methyl-1H-pyrazol-4-yl)-4-methylpyrimidin-5-yl)oxy)cyclohexane-1-carboxylic acid]: the pIC50 was 7.68.

With `CCOc1ccnc(NCc2c(-c3ncc(O[C@H]4CCC[C@H](C(=O)O)C4)cn3)cnn2C)n1` [Example 28, (1S,3S)-3-((2-(5-(((4-ethoxypyrimidin-2-yl)amino)methyl)-1-methyl-1H-pyrazol-4-yl)pyrimidin-5-yl)oxy)cyclohexane-1-carboxylic acid], the pIC50 was 7.64.

In the case of `Cc1nc(-c2cnn(C)c2CNc2nccc(C(C)(C)C)n2)ncc1O[C@H]1CCC[C@H](C(=O)O)C1` [Example 11, (1S,3S)-3-((2-(5-(((4-(tert-butyl)pyrimidin-2-yl)amino)methyl)-1-methyl-1H-pyrazol-4-yl)-4-methyl-pyrimidin-5-yl)oxy)cyclohexane carboxylic acid], the pIC50 is 7.30.

For the compound `Cc1nc(-c2cnn(C)c2Nc2nccc(OC(C)C)n2)ncc1O[C@H]1CCC[C@H](C(=O)O)C1` [Example 18, (S,3S)-3-((2-(5-((4-isopropoxypyrimidin-2-yl)amino)-1-methyl-1H-pyrazol-4-yl)-4-methyl-pyrimidin-5-yl)oxy)cyclohexane-1-carboxylic acid], the pIC50 was 5.99.

For the compound `Cc1nc(-c2cnn(C)c2CNc2ncnc(C3CCCC3)n2)ncc1O[C@H]1CCC[C@H](C(=O)O)C1` [Example 15, (1S,3S)-3-((2-(5-(((4-cyclopenty1-1,3,5-triazin-2-yl)amino)methyl)-1-methyl-1H-pyrazol-4-yl)-4-methylpyrimidin-5-yl)oxy)cyclohexane carboxylic acid], the negative logarithm of the IC50 (pIC50) was 6.83.

As for `Cc1nc(-c2cnn(C)c2CNc2nccc(OC(C)C)n2)ncc1O[C@H]1CCC[C@H](C(=O)O)C1` [Example 2, (1S,3S)-3-((2-(5-(((4-Isopropoxypyrimidin-2-yl)amino)methyl)-1-methyl-1H-pyrazol-4-yl)-4-methylpyrimidin-5-yl)oxy)cyclohexane-1-carboxylic acid], the negative logarithm of the IC50 (pIC50) is 7.54.
